The values that follow come from PubChem BioAssay AID330 (DTP/NCI, 2004).

Where “and” joins values, the source holds several entries; their conditions need not be identical. Identical values can stand only once. Toxic doses and inconclusive results are not listed.

The test system of the assay is P388 leukemia ip, CD2F1 mice, survival T/C. Briefly: NCI In Vivo Anticancer Drug Screen. Data for tumor model P388 Leukemia (intraperitoneal) in CD2F1 (CDF1) mice. Conditions: endpoint: median survival time, higher = longer survival. The essentials:
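Mice carrying the transplanted tumor received test compound or vehicle. Survival was recorded in each group, and the value is the treated-group measurement divided by that of the vehicle-treated control group.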

Where [1] appears, read: dose: 60.0 mg/kg/injection, schedule: Q01DX005 (ip), vehicle: saline with Tween-80.
The mark [2] stands for this setting: dose: 120.0 mg/kg/injection, schedule: Q01DX005 (ip), vehicle: saline with Tween-80.
[3] abbreviates: dose: 240.0 mg/kg/injection, schedule: Q01DX005 (ip), vehicle: saline with Tween-80.
Setting [4] is: dose: 25.0 mg/kg/injection, schedule: Q01DX005 (ip), vehicle: Klucel (hydroxypropylcellulose) (HPC).
[5] abbreviates: dose: 50.0 mg/kg/injection, schedule: Q01DX005 (ip), vehicle: Klucel (hydroxypropylcellulose) (HPC).
Where [6] appears, read: dose: 100.0 mg/kg/injection, schedule: Q01DX005 (ip), vehicle: Klucel (hydroxypropylcellulose) (HPC).
Where [7] appears, read: dose: 200.0 mg/kg/injection, schedule: Q01DX005 (ip), vehicle: Klucel (hydroxypropylcellulose) (HPC).
Setting [8] is: dose: 50.0 mg/kg/injection, schedule: Q01DX009 (ip), vehicle: saline with Tween-80.
Setting [9] is: dose: 15.0 mg/kg/injection, schedule: Q01DX005 (ip), vehicle: saline with Tween-80.
The mark [10] stands for this setting: dose: 30.0 mg/kg/injection, schedule: Q01DX005 (ip), vehicle: saline with Tween-80.

For the compound `C/C=C/c1nn(-c2ccccc2)c2c1C(=O)CC(C)O2` (stereo not drawn), the T/C is, setting by setting: under setting [1], 96 % of control; under setting [2], 95 % of control; under setting [3], 96 % of control.

Turning to `C[C@H]1CC[C@@H]2[C@@H](C)[C@H]3[C@H](C[C@H]4[C@@H]5CC=C6C[C@@H](O)CC[C@]6(C)[C@H]5C[C@H](O)[C@]34C)N2C1`, the T/C under setting [4] was 101 % of control and 105 % of control.

As to `C[n+]1cccc2c1C(=O)C(=O)c1c-2ccc[n+]1C`, the T/C is 120 % of control (dose: 100.0 mg/kg/injection, schedule: Q04DX002 (ip), vehicle: saline with Tween-80) and 105 % of control (dose: 200.0 mg/kg/injection, schedule: Q04DX002 (ip), vehicle: saline with Tween-80).

In the case of `COc1cccc([B-]23OCC[N+]2(CNC(=O)c2ccccc2O)CCO3)c1` (stereo not drawn), the T/C was 106 % of control under setting [5], 104 % of control under setting [6] and 112 % of control under setting [7].

On to `CC(C)NCC(O)c1ccc(O)c(NC=O)c1` (stereo not drawn), for which the T/C by setting is: under setting [8], 102 % of control; (dose: 100.0 mg/kg/injection, schedule: Q01DX009 (ip), vehicle: saline with Tween-80) 104 % of control; (dose: 200.0 mg/kg/injection, schedule: Q01DX009 (ip), vehicle: saline with Tween-80) 100 % of control.

Take `O=C(/C=C(\C(=O)c1ccccc1)c1ccccc1)c1ccccc1`: the T/C (dose: 50.0 mg/kg/injection, schedule: Q01DX009 (ip), vehicle: saline sonified) was 100 % of control; the T/C (dose: 100.0 mg/kg/injection, schedule: Q01DX009 (ip), vehicle: saline sonified) is 100 % of control; the T/C (dose: 200.0 mg/kg/injection, schedule: Q01DX009 (ip), vehicle: saline sonified) was 100 % of control.

In the case of `OC(c1cc(-c2ccccc2)nc2c(Cl)cc(Cl)cc12)C1CCCCN1` (stereo not drawn), the T/C was 107 % of control (dose: 12.5 mg/kg/injection, schedule: Q01DX009 (ip), vehicle: saline with Tween-80); 98 % of control (dose: 25.0 mg/kg/injection, schedule: Q01DX009 (ip), vehicle: saline with Tween-80); 88 % of control and 95 % of control under setting [8].

Turning to `CC(C)(C)SC(=S)SCC(=O)c1ccc(F)cc1`, the T/C is, setting by setting: under setting [1], 102 % of control; under setting [2], 103 % of control; under setting [3], 102 % of control.

For `CC(=O)OC1CN(C)CC=C1c1ccccc1` (stereo not drawn), the T/C is, setting by setting: under setting [9], 91 % of control; under setting [10], 97 % of control; under setting [1], 100 % of control and 97 % of control.

For `O=C(Cc1nc2ccc(Cl)cc2nc1CC(=O)c1ccccc1)c1ccccc1`, the T/C by setting is: under setting [9], 102 % of control; under setting [10], 111 % of control; under setting [1], 100 % of control and 107 % of control.

Consider `COc1cccc2c1C(=O)c1c(O)c3c(c(O)c1C2=O)C[C@@](O)(C(=O)CO)C[C@@H]3OC1CC(NC(=O)C(N)CC(C)C)C(O)C(C)O1` (stereo partly drawn), for which the T/C was 105 % of control (dose: 3.12 mg/kg/injection, schedule: Q04DX003 (ip), vehicle: saline); 118 % of control (dose: 6.25 mg/kg/injection, schedule: Q04DX003 (ip), vehicle: saline); 150 % of control (dose: 25.0 mg/kg/injection, schedule: Q04DX003 (ip), vehicle: saline).

For `CCOC(=O)c1[nH]cnc1/N=N/N(C)CCO`, the T/C was 109 % of control (dose: 100.0 mg/kg/injection, schedule: Q04DX003 (ip), vehicle: saline with Tween-80); 113 % of control (dose: 200.0 mg/kg/injection, schedule: Q04DX003 (ip), vehicle: saline with Tween-80); 118 % of control (dose: 400.0 mg/kg/injection, schedule: Q04DX003 (ip), vehicle: saline with Tween-80).

As for `CCC(C)N(CC)CCNc1cc(OC)cc2cccnc12` (stereo not drawn), the T/C (dose: 50.0 mg/kg/injection, schedule: Q01DX005 (ip), vehicle: saline) is 103 % of control and the T/C (dose: 100.0 mg/kg/injection, schedule: Q01DX005 (ip), vehicle: saline) is 99 % of control.

For the compound `CCCC[C@H]1C(=O)O[C@H](C)[C@H](NC(=O)c2cccc(NC=O)c2O)C(=O)O[C@@H](C)[C@@H]1OC(=O)CC(C)C`, the T/C is, setting by setting: (dose: 0.12 mg/kg/injection, schedule: Q01DX009 (ip), vehicle: Klucel (hydroxypropylcellulose) (HPC)) 105 % of control; (dose: 0.25 mg/kg/injection, schedule: Q01DX009 (ip), vehicle: Klucel (hydroxypropylcellulose) (HPC)) 105 % of control; (dose: 0.5 mg/kg/injection, schedule: Q01DX009 (ip), vehicle: Klucel (hydroxypropylcellulose) (HPC)) 109 % of control; (dose: 1.0 mg/kg/injection, schedule: Q01DX009 (ip), vehicle: Klucel (hydroxypropylcellulose) (HPC)) 119 % of control.

With `Cc1nc2cc[nH]n2c(=O)c1CCc1ccccc1`, the T/C under setting [1] is 90 % of control and the T/C under setting [2] is 88 % of control.

As for `c1cc[n+](CC[n+]2ccccn2)nc1`, the T/C runs as follows: (dose: 12.5 mg/kg/injection, schedule: Q01DX001 (ip), vehicle: saline) 108 % of control and 111 % of control and 95 % of control; (dose: 25.0 mg/kg/injection, schedule: Q01DX001 (ip), vehicle: saline) 100 % of control (2×) and 122 % of control; (dose: 50.0 mg/kg/injection, schedule: Q01DX001 (ip), vehicle: saline) 100 % of control and 101 % of control and 92 % of control.

Regarding `O=S(=O)(c1ccccc1)C1CC=C(c2ccccc2)CNC1` (stereo not drawn), the T/C reads like this: (dose: 50.0 mg/kg/injection, schedule: Q01DX001 (ip), vehicle: Klucel (hydroxypropylcellulose) (HPC)) 99 % of control; (dose: 100.0 mg/kg/injection, schedule: Q01DX001 (ip), vehicle: Klucel (hydroxypropylcellulose) (HPC)) 98 % of control; (dose: 200.0 mg/kg/injection, schedule: Q01DX001 (ip), vehicle: Klucel (hydroxypropylcellulose) (HPC)) 98 % of control; (dose: 400.0 mg/kg/injection, schedule: Q01DX001 (ip), vehicle: Klucel (hydroxypropylcellulose) (HPC)) 100 % of control.

Take `CCCC(=O)N(C)O`: the T/C was 108 % of control (dose: 100.0 mg/kg/injection, schedule: Q01DX005 (ip), vehicle: saline with Tween-80) and 103 % of control (dose: 200.0 mg/kg/injection, schedule: Q01DX005 (ip), vehicle: saline with Tween-80).

`COC1(OC)/C(=C/Cl)CC2(C)C(=O)NC(=O)C21Cl` (stereo not drawn): the T/C is, setting by setting: under setting [4], 106 % of control; under setting [5], 105 % of control; under setting [6], 105 % of control; under setting [7], 106 % of control.

On to `CN(C)c1ccc(C(=C2C=CC(=[N+](C)C)C=C2)c2ccccc2Cl)cc1`, for which the T/C (dose: 1.56 mg/kg/injection, schedule: Q01DX005 (ip), vehicle: saline with Tween-80) is 117 % of control; the T/C (dose: 3.13 mg/kg/injection, schedule: Q01DX005 (ip), vehicle: saline with Tween-80) is 117 % of control and 121 % of control; the T/C (dose: 6.25 mg/kg/injection, schedule: Q01DX005 (ip), vehicle: saline with Tween-80) was 118 % of control (2×) and 121 % of control; the T/C (dose: 12.5 mg/kg/injection, schedule: Q01DX005 (ip), vehicle: saline with Tween-80) was 112 % of control and 88 % of control.

With `CC(=O)Nc1ccc(NC(=S)Nc2ccccc2C(F)(F)F)cc1`, the T/C is 96 % of control (dose: 50.0 mg/kg/injection, schedule: Q01DX009 (ip), vehicle: Klucel (hydroxypropylcellulose) (HPC)); 92 % of control (dose: 100.0 mg/kg/injection, schedule: Q01DX009 (ip), vehicle: Klucel (hydroxypropylcellulose) (HPC)); 87 % of control (dose: 200.0 mg/kg/injection, schedule: Q01DX009 (ip), vehicle: Klucel (hydroxypropylcellulose) (HPC)).

With `O=C1CSCC(=O)OCCOCCOCCO1`, the T/C was 104 % of control (dose: 100.0 mg/kg/injection, schedule: Q04DX003 (ip), vehicle: suspension in saline); 101 % of control (dose: 200.0 mg/kg/injection, schedule: Q04DX003 (ip), vehicle: suspension in saline); 101 % of control (dose: 400.0 mg/kg/injection, schedule: Q04DX003 (ip), vehicle: suspension in saline).

`CCNC1=CC(=O)c2ncccc2C1=O`: the T/C was 99 % of control (dose: 3.13 mg/kg/injection, schedule: Q01DX009 (ip), vehicle: DMSO); 100 % of control (dose: 6.25 mg/kg/injection, schedule: Q01DX009 (ip), vehicle: DMSO); 99 % of control (dose: 12.5 mg/kg/injection, schedule: Q01DX009 (ip), vehicle: DMSO); 95 % of control (dose: 25.0 mg/kg/injection, schedule: Q01DX009 (ip), vehicle: DMSO).
